Results taken from US20180265867A1, “NUCLEIC ACID MOLECULES WITH ENHANCED ACTIVITY” (priority 2015, published 2018).
d = 2'-deoxy (DNA); r = 2'-OH (RNA)

What was measured:
Ctnnb1 (β-Catenin) = experiment: Ctnnb1 expression in MC3T3-E1 cells by quantitative RT-PCR; format: cell-based, mouse
Procedure: (§1) MC3T3-E1 cells were cultured in α-MEM (Sigma-Aldrich, Haverhill, UK) medium containing 10% FBS, 1% L-Glutamine, and 1% antibiotics (PeSt) at 37° C. with 5% CO2. One day prior to the miRNA treatment, 35,000 cells were plated per each well of a 24-well plate. On the experiment day, cells were replaced with 2% heat inactivated-FBS containing α-MEM medium with 1% L-Glutamine, and 1% antibiotics (PeSt). miR-34a-CP (final concentration: 50 nM) was given to the each well. Mirvana scrambled miRNA mimic was used as a negative control.
After 24 hours of transfection, and incubation, RNA extraction was performed by using miRCURY RNA Isolation Kit—Cell and Plant (#300100) and protocol from Exiqon, Vedbæk, Denmark. RNA samples were treated with DNase for 30 minutes at 37 degrees, thereafter inactivated with a DNase inactivation solution (TUTRBO DNase AM2238 thermofisher). Thereafter, RNA concentrations were measured using NanoDrop ND-1000 from NanoDrop Technologies, Wilmington, Del.
The cDNA was made from the total RNA using High Capacity cDNA reverse transcription kit (Applied Biosystems, USA). Reactions were performed on a 96-well Bio-Rad Thermal Cycler PCR System at 37° C. for 60 minutes, and at 95° C. for 5 min respectively. Real-time PCR reactions were performed as follows: 10 μl of 2×TaqMan® Universal PCR Master Mix, no AmpErase® UNG (Applied Biosystems, USA), 9 μl 1:5 diluted cDNA, and 1 μl of TaqMan gene specific assay mix. Final volume of the reaction mix was 20 uL. Internal control gene beta-actin (ACTB) (Applied Biosystems, USA) was selected as control for normalization of TaqMan data. The qRT-PCR reaction comprised a non-template control of cDNA in order to rule out any non-specific reading. Taqman probes for Ctnnb1, Sox9, Actb, were obtained from Applied Biosystems. The qRT-PCR amplification was carried out using the Bio-Rad qRT-PCR Thermocycler.
In order to achieve the transfection reagent free delivery of therapeutically potential microRNAs, we tested miR-34a and compared with miR-34a-CP. Since microRNAs unlike siRNAs have multiple targets in the cell, and there is a necessity to reduce the off-target and undesirable effects if any, we have also designed siRNA model siR-34a-CP as stated above. We have used mouse preosteoblast cell line MC3T3-E1 obtained from calvarial bone for the in-vitro functional validation of cell-penetrating molecules. On the day before transfection experiment, 35000 MC3T3-E1 cells were cultured per each well of the 24-well culture plate in alpha-Minimum Essential Medium with 10% heat inactivated FBS, 1% L-Glutamine, 1% antibiotics (Pe/St). […] 5% CO2. Thereafter, RNA extraction, cDNA preparation, and quantitative real-time PCR was performed by using TaqMan procedure.

SOX9 = SOX9 expression in MC3T3-E1 cells by real-time PCR; format: cell-based, mouse; conditions: MC3T3-E1 cells (FIG. 13)
Procedure: as §1
After 24 hours of transfection, and incubation, RNA extraction was performed by using miRCURY RNA Isolation Kit—Cell and Plant (#300100) and protocol from Exiqon, Vedbæk, Denmark. […] Thereafter, RNA concentrations were measured using NanoDrop ND-1000 from NanoDrop Technologies, Wilmington, Del.
The cDNA was made from the total RNA using High Capacity cDNA reverse transcription kit (Applied Biosystems, USA). […] The qRT-PCR reaction comprised a non-template control of cDNA in order to rule out any non-specific reading. […]
Since overexpression of Ctnnb1 is indicative of osteogenic differentiation of cells, we determined the expression of transcription factor that could be activated. For this purpose, we measured the levels of […] marker SOX9 that is implicated in endochondral ossification.

[1] = system: A2780 human ovarian cancer cells; experiment: Cell viability (ApoTox-Glo Triplex Assay) in A2780 cells; format: cell-based; conditions: 10 nM to 1000 nM, 48 h (FIG. 15)
Procedure: Cell viability study of 5-FU and siRNA derivatives bearing 5FU molecules were performed using, ApoTox-Glo™ Triplex Assay kit following manufacturer's protocol. Briefly, A2780 human ovarian cancer cells were seeded in 384 well BD Facon black plates (1000 cells in 50 μL/well) using automated Biomek FX pipetting workstation and incubated at 37° C. for 24 h for cell attachment. Stock solution of 5FU, siRNA-5FU2 and siRNA 5FU5 was prepared in cell culture medium (DMEM) respectively. siRNA-5FU2 and siRNA 5FU5 corresponds to Stat3 siRNA bearing 2 or 5 molecules of 5FU at the 3′end of the sense strand. After 24 h, different volume of stock solution was added to each well using non-contact acoustic dispenser (Echo 555), to obtain a gradient concentration ranging from 10 nM to 1000 nM and incubated for additional 48 h at 37° C. After 48 h, 20 μl of medium was treated with 5 μl of cell viability assay reagent, containing both GF-AFC substrate and bis-AAF-R110 substrate and incubated for 30 min at 37° C. Fluorescence values were recorded at two wavelength sets: 400Ex/505Em (Viability) and 485Ex/520Em (Cytotoxicity) using Envision Multilabel Plate Reader and the cell viability were obtained as a percentage of the untreated control (100% cell viability). […] All the cell experiments were measured in triplicate.

| Molecule | Ctnnb1 expression (Ctnnb1 (β-Catenin); 50 nM, 24 h, alone without transfection reagent (FIG. 11)) | Ctnnb1 expression (Ctnnb1 (β-Catenin); without transfection reagent MaTra (FIG. 12)) | SOX9 levels (SOX9) | cytotoxicity [1] |
| --- | --- | --- | --- | --- |
| miR-34a-CP: Cell penetrating miR-34a, sense SEQ ID NO: 22 with dA5, antisense SEQ ID NO: 23 (sense CAAUCAGCAAGUAUACUGCCCUAAAAA; antisense UGGCAGUGUCUUAGCUGGUUGU; sense: sugars from the 5' end r22 d5, backbone not given here; antisense: RNA, backbone not given here) | up regulation of Ctnnb1 | up regulation of Ctnnb1 | upregulated | – |
| O=c1[nH]cc(F)c(=O)[nH]1 [5FU, 5-Fluorouracil] | – | – | – | dose dependent cytotoxicity |
